Laboratory results as given in patent US9480695B2, “Methods for inducing orexin neurons and agent for treating narcolepsy or eating disorder” (THE UNIVERSITY OF TOKYO, priority 2011, dated 2016).

Assays:
Assay type in all cases: cell-based
[1] = tested on: Mouse ES cells (J1 strain); test: Hcrt expression in mouse ES cells, SFEB/gfCDM differentiation culture system, RT-PCR; details: 1.0 mM from 7th day of differentiation culturing; cells collected on 25th day; FIG. 5
Protocol: Mouse ES cells (J1 strain) which had been maintained in a medium for an ES cell were seeded on a 96-well low adhering round-bottom culture dish (Nunc) so that the cell count became 10,000 cells per well, and cultured with gfCDM [IMDM/F12 (Invitrogen) added with 5 mg/ml BSA (SIGMA), 450 μM Monothioglycerol (Wako), 1× chemically defined lipid concentrate (Invitrogen), 50 U/ml penicillin/50 μg/ml streptomycin] for 7 days. The cells were cultured in 150 μl of a medium per well. On 7th day of differentiation culturing, the medium was exchanged with a DFK medium [DMEM/F12 (Invitrogen) added with 7 g/1 glucose, 10% KSR, 50 U/ml penicillin/50 μg/ml streptomycin], and on 10th day, half the amount of the medium was exchanged with a DFNB medium [7 g/1 glucose, 1×N2 (Wako), 1×B27 (Invitrogen)] containing 10 ng/ml CNTF. On 13th day of culturing, cells were detached with 0.05% trypsin/EDTA, seeded on a culture dish (Falcon) which had been treated with poly-D-lysine/laminin so that the cell count became 4.8×10^6 cells per 10 cm culture dish, and cultured in a DFNB medium containing 10% FBS, 10 ng/ml CNTF, 50 ng/ml BDNF and 50 ng/ml NT3. The medium was exchanged every 3 days. On 25th day of differentiation culturing, cells were collected and pelletized by a centrifugation operation to remove the culture medium. Thereafter, the pellets were immediately frozen in liquid nitrogen, and stored at −80° C. until use.
The analysis was performed by the same method as that of Example 1.

[2] = tested on: Mouse ES cells (J1 strain); test: Induction of Hcrt expression in neural differentiation from mouse ES cells, SDIA differentiation culture system, RT-PCR; details: for Expression of Hcrt with changed time of addition: 1.0 mM, addition time varied, FIG. 3; for Expression of an orexin gene (Hcrt): added from initiation of differentiation culturing at 0.2 and 1.0 mM, cells collected on 10th day, FIG. 2
Protocol: Mouse ES cells (J1 strain) which had been maintained in a medium for an ES cell [DMEM (Wako) added with 15% FBS (Biowest), 1 mM sodium pyruvate (Invitrogen), […] (Invitrogen), 2 mM L-glutamine (Invitrogen), 1 mM non essential amino acid (Invitrogen), 50 U/ml penicillin/50 μg/ml streptomycin (Invitrogen), 2000 U leukemia inhibitory factor (Chemicon, CA)] were seeded on a 10 cm culture dish so that the cell count became 1×10^5 cells per culture dish on which PA6 stromal cells had been seeded in advance, and differentiation induction was performed in a medium for neural differentiation [Glasgow MEM (Invitrogen) added with 10% KSR (Invitrogen), […] (Invitrogen), 1 mM non essential amino acid (Invitrogen), 50 U/ml penicillin/50 μg/ml streptomycin (Invitrogen)] for 10 days. On 4th and 7th days of differentiation culturing, the medium was exchanged. In addition, from 4th day of differentiation culturing, 5 nM recombinant human BMP4 (Wako) was added (FIG. 1). On 10th day of differentiation culturing, cells were collected and pelletized by a centrifugation operation to remove the culture medium. Thereafter, the pellets were immediately frozen in liquid nitrogen and stored at −80° C. until use.
The total RNA was extracted from the collected cells using RNeasy plus Mini Kit (QIAGEN). Then, a reverse transcription reaction was performed in a reaction liquid containing 1 μg of the total RNA, and Oligo (dT) using SuperScript III First Strand Synthesis System (Invitrogen) to synthesize a cDNA.
A PCR reaction was performed on a 10 μl scale, 1 U of LA-Taq DNA Polymerase (Takara) was added to 0.5 μl of a cDNA, 5 μl of 2×GC Buffer I, each 200 μM of dNTP, 1.5 mM MgCl2, and each primer having a final concentration of 0.2 μM, thermal denaturation was performed at 95° C. for 3 minutes, and the reaction was performed under the condition of (30 seconds at 95° C., 30 seconds at 55° C., and 30 seconds at 72° C.)×35 cycles (20 cycles in the case of Actb). The primers used are shown below.
Each PCR product was electrophoresed on a 2% agarose gel, stained with ethidium bromide, and a band was observed by UV irradiation.

[3] = tested on: human iPS cell strain 201B7; test: Hcrt expression with ManNAc plus Sirt inhibitor and Ogt inhibitor, neural differentiation from human iPS cell, RT-PCR; details: ManNAc 1.0 mM from 0th day, EX-527 50 nM and/or BADGP 5 mM on 14th day, collected 20th day; FIG. 10
Protocol: A human iPS cell strain 201B7 (HSP0001) was obtained from Riken BioResource Center via National BioResource Project (MEXT, Japan). The human iPS cell was maintained on a feeder layer of a mitomycin C-treated STO/Neo resistant/LIF (SNL) feeder cell in a primate ES medium (ReproCELL) complemented with 5 ng/mL recombinant human bFGF (Wako). The human iPS cell was co-cultured with PA6 for 20 days, for differentiation induction into a nerve with a SIDA and BMP4 system. From 7th day, 5 nM BMP4 was complemented. A detailed protocol of differentiation induction into a nerve cell is shown in the lower column of FIG. 11. From the initiation of differentiation culturing (0th day), ManNAc was added to a neural differentiation medium so that the concentration became 1.0 mM, and on 7th, 10th and 14th days of differentiation culturing, the medium was exchanged. In addition, from 7th day of differentiation culturing, 5 nM recombinant human BMP4 (Wako) was added. On 14th day of differentiation culturing, EX-527 (SIGMA-ALDRICH) was added to a neural differentiation medium so that the concentration became 50 nM, or BADGP (SIGMA-ALDRICH) was added to a neural differentiation medium so that the concentration became 5 mM, and on 20th day of differentiation culturing, cells were collected and subjected to RT-PCR. The conditions of RT-PCR are the same as those of Example 1.

[4] = tested on: Mouse ES cells (J1 strain); test: Hcrt expression with ManNAc plus Sirt inhibitor or Ogt inhibitor, neural differentiation from mouse ES cell, RT-PCR; details: ManNAc 1.0 mM from 0th day, EX-527 50 nM on 7th day, collected 10th day; FIG. 8
Protocol: According to the same manner as that described in Example 1, mouse ES cells (J1 strain) were cultured for 10 days for differentiation induction into a nerve cell. A protocol of inducing differentiation into a nerve cell is shown in the upper column of FIG. 11. From the initiation of differentiation culturing (0th day), ManNAc was added to a neural differentiation medium so that the concentration became 1.0 mM, and the medium was exchanged on 4th and 7th days of differentiation culturing. In addition, from 4th day of differentiation culturing, 5 nM recombinant human BMP4 (Wako) was added. On 7th day of differentiation culturing, EX-527 (SIGMA-ALDRICH) was added to a neural differentiation medium so that the concentration became 50 nM or BADGP (SIGMA-ALDRICH) was added to a neural differentiation medium so that the concentration became 1 or 5 mM, and on 10th day of differentiation culturing, cells were collected and subjected to RT-PCR. The conditions of RT-PCR are the same as those of Example 1.

Structure (SMILES)	Expression of Hcrt [1]	Expression of Hcrt with changed time of addition [2]	Expression of an orexin gene (Hcrt) [2]	Expression of an orexin gene (Hcrt) [3]	Expression of an orexin gene (Hcrt) [4]
CC(=O)N[C@H]1[C@H]([C@H](O)[C@H](O)CO)OC(O)(C(=O)O)C[C@@H]1O (stereo partly shown) [Neu5Ac, N-acetylneuraminic acid]	expression of Hcrt was recognized	observed only in a ManNAc-added section	recognized only in a ManNAc-added section		
CC(=O)N[C@H]1C(O)O[C@H](CO)[C@@H](O)[C@@H]1O (stereo partly drawn) [GlcNAc, N-acetyl-D-glucosamine]		observed only in a ManNAc-added section	recognized only in a ManNAc-added section		
NC(=O)C1CCCc2c1[nH]c1ccc(Cl)cc21 (stereo not shown) [EX-527, 6-chloro-2,3,4,9-tetrahydro-1H-carbazole-1-carboxamide, reference compound]				recognized in a ManNAc-added section and an EX-527-added section to the same extent	expression of Hcrt was recognized
